From publication PMC10117910, “Recombinant production, purification, and biochemical characterization of a novel L-lactate dehydrogenase from Bacillus cereus NRC1 and inhibition study of mangiferin” (Frontiers in Bioengineering and Biotechnology, 2023)

Key:
[1] = target: T1, L-lactate dehydrogenase (Bc-LDH) (Bacillus cereus, UniProt Q81EP4); assay: LDH activity assay (NADH absorbance at […] nm) of purified enzyme; Lineweaver-Burk and Dixon plots; format: biochemical
T1 construct: gene ldh1; full-length, 314 amino acids (GenBank BDI00612.1), recombinant from pET28-Bc-LDH in E. coli BL21 (DE3)

[2] = target: Bacillus cereus NRC1 L-lactate dehydrogenase (Bacillus cereus NRC1) (UniProt P0A392); assay: SEC; gel filtration on a calibrated Sephacryl S-300 column (142 cm × 1.75 cm i.d.), eluted with 0.02 M phosphate buffer pH 7.5; native mass compared with the subunit mass by SDS-PAGE (35 kDa)

T1 sequence (Q81EP4 whole entry): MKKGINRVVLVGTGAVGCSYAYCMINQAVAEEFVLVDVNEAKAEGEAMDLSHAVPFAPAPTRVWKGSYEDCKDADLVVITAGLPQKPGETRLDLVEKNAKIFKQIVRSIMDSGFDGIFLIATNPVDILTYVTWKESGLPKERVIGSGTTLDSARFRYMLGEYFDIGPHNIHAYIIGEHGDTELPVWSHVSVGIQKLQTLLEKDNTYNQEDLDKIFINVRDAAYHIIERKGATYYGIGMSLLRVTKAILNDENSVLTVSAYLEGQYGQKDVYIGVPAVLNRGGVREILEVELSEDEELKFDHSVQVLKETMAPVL

Row | stoichiometry N [2] | Compound | Ki [1] [µM]
1 | – | O=c1c2cc(O)c(O)cc2oc2cc(O)c([C@@H]3O[C@H](CO)[C@@H](O)[C@H](O)[C@H]3O)c(O)c12 [mangiferin, 2-β-D-glucopyranosyl-1,3,6,7-tetrahydroxy-9H-xanthen-9-one] | 75
2 | 4 | Bacillus cereus NRC1 L-lactate dehydrogenase (from UniProt P0A392 1-366) (enzyme) | –
